Reference: PubChem BioAssay AID1963431 (Molecular Pharmacology Branch, DTP, NCI, 2024)
pIC50: −log10 of the molar value. “And” between values parts separate entries of the source, which are not always exact repeats. Identical values can stand only once.

Test system: Rh18 complex spheroid viability, percent test/control
Experiment: Anticancer human tumor Rh18 cell line growth inhibition [Asc];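 further: spheroids exposed to compound for 7 days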;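 on viability, T/C: 100% = DMSO vehicle control wells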
Settings: for viability, T/C: stronger effect = lower value; active means viability on the fitted dose curve at most 10% of control; inactive means the rest
Summary of the method: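 Concentration series start at each agent's clinical Cmax, or at 10 microM when none is established, and drop in half-log steps; agents are applied alone or together to complex spheroids built with HUVEC and hMSC.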

[1] = curve of first compound, second compound 0.1 µM
[2] = curve of first compound, second compound 0.316 µM
[3] = curve of first compound, second compound 1 µM
[4] = curve of first compound, second compound 3.16 µM
[5] = curve of first compound, second compound 10 µM
[6] = second compound 0.1 µM, first compound 0.00949 µM
[7] = second compound 0.1 µM, first compound 0.03 µM
[8] = second compound 0.1 µM, first compound 0.0949 µM
[9] = second compound 0.1 µM, first compound 0.3 µM
[10] = second compound 0.316 µM, first compound 0.00949 µM
[11] = second compound 0.316 µM, first compound 0.03 µM
[12] = second compound 0.316 µM, first compound 0.0949 µM
[13] = second compound 0.316 µM, first compound 0.3 µM
[14] = second compound 1 µM, first compound 0.00949 µM
[15] = second compound 1 µM, first compound 0.03 µM
[16] = second compound 1 µM, first compound 0.0949 µM
[17] = second compound 1 µM, first compound 0.3 µM
[18] = second compound 3.16 µM, first compound 0.00949 µM
[19] = second compound 3.16 µM, first compound 0.03 µM
[20] = second compound 3.16 µM, first compound 0.0949 µM
[21] = second compound 3.16 µM, first compound 0.3 µM
[22] = second compound 10 µM, first compound 0.00949 µM
[23] = second compound 10 µM, first compound 0.03 µM
[24] = second compound 10 µM, first compound 0.0949 µM
[25] = second compound 10 µM, first compound 0.3 µM

C=C(F)C(=O)N1CCN(c2nc(OCC3CCCN3C)nc3c2CCN(c2cccc4cccc(Cl)c24)C3)CC1CC#N (stereo unspecified) + CNC(C)C(=O)NC1CN(S(=O)(=O)c2cccc(S(=O)(=O)N3CCC4CCC(C(=O)NC(c5ccccc5)c5ccccc5)N4C(=O)C(NC(=O)C(C)NC)C3)c2)CCC2CCC(C(=O)NC(c3ccccc3)c3ccccc3)N2C1=O
active: viability, T/C (second compound 0.01 µM, first compound 10 µM) 0.19% | viability, T/C (second compound 0.0316 µM, first compound 10 µM) 0.18% | viability, T/C (second compound 0.1 µM, first compound 10 µM) 0.19% | viability, T/C (second compound 0.316 µM, first compound 10 µM) 0.19% | viability, T/C (second compound 1 µM, first compound 10 µM) 0.2%
6.32: pIC50 (curve of first compound, second compound 0.01 µM)
6.82: pIC50 (curve of first compound, second compound 0.0316 µM)
inactive: viability, T/C (second compound 0.01 µM, first compound 0.0316 µM) 71% | viability, T/C (second compound 0.01 µM, first compound 0.1 µM) 70.1% | viability, T/C (second compound 0.01 µM, first compound 0.316 µM) 53.5% | viability, T/C (second compound 0.01 µM, first compound 1 µM) 40.7% | viability, T/C (second compound 0.01 µM, first compound 3.16 µM) 16.2% | viability, T/C (second compound 0.0316 µM, first compound 0.0316 µM) 46.5% | viability, T/C (second compound 0.0316 µM, first compound 0.1 µM) 62.6% | viability, T/C (second compound 0.0316 µM, first compound 0.316 µM) 39.8% | viability, T/C (second compound 0.0316 µM, first compound 1 µM) 39.7% | viability, T/C (second compound 0.0316 µM, first compound 3.16 µM) 14.8% | viability, T/C (second compound 0.1 µM, first compound 0.0316 µM) 41.6% | viability, T/C (second compound 0.1 µM, first compound 0.1 µM) 42.2% | viability, T/C (second compound 0.1 µM, first compound 0.316 µM) 43.8% | viability, T/C (second compound 0.1 µM, first compound 1 µM) 34.4% | viability, T/C (second compound 0.1 µM, first compound 3.16 µM) 10.1% | viability, T/C (second compound 0.316 µM, first compound 0.0316 µM) 49.4% | viability, T/C (second compound 0.316 µM, first compound 0.1 µM) 49% | viability, T/C (second compound 0.316 µM, first compound 0.316 µM) 47.7% | viability, T/C (second compound 0.316 µM, first compound 1 µM) 39.2% | viability, T/C (second compound 0.316 µM, first compound 3.16 µM) 10.8% | viability, T/C (second compound 1 µM, first compound 0.0316 µM) 42.3% | viability, T/C (second compound 1 µM, first compound 0.1 µM) 45.3% | viability, T/C (second compound 1 µM, first compound 0.316 µM) 37.7% | viability, T/C (second compound 1 µM, first compound 1 µM) 31.3% | viability, T/C (second compound 1 µM, first compound 3.16 µM) 6.38%
> 7.50: pIC50 [1] | pIC50 [2] | pIC50 [3]

Cn1ncnc1[C@H]1c2n[nH]c(=O)c3cc(F)cc(c23)N[C@@H]1c1ccc(F)cc1
7.89 and 7.97 and 8.50: pIC50 (curve of compound)
inactive: viability, T/C (compound 0.000316 µM) 113% and 102% and 90.3% | viability, T/C (compound 0.001 µM) 101% and 99.1% and 69.5% | viability, T/C (compound 0.00316 µM) 79.1% and 73.3% and 49.3% | viability, T/C (compound 0.01 µM) 51.2% and 49.3% and 46.3% | viability, T/C (compound 0.0316 µM) 41.5% and 46.6% and 46.8% | viability, T/C (compound 0.1 µM) 41.6% and 51.8% and 40.3%

O=C(c1cc(Cc2n[nH]c(=O)c3ccccc23)ccc1F)N1CCN(C(=O)C2CC2)CC1
inactive: viability, T/C (compound 0.0316 µM) 108% and 86.4% and 91.5% | viability, T/C (compound 0.1 µM) 99.5% and 81.7% and 85.2% | viability, T/C (compound 0.316 µM) 59.4% and 79.7% and 82.2% | viability, T/C (compound 1 µM) 57.3% and 63.1% and 73.7% | viability, T/C (compound 3.16 µM) 44.9% and 53% and 35.5% | viability, T/C (compound 10 µM) 44.7% and 41.7% and 29.5%
6.04 and 5.42 and 5.69: pIC50 (curve of compound)

NC(=O)C(=Cn1cnc(-c2cc(C(F)(F)F)cc(C(F)(F)F)c2)n1)c1cncnc1 + Cc1c(S(C)(=O)=O)c(-c2cc(F)cc(N3CCN(c4ccc(NS(=O)(=O)c5ccc(NC(CCN6CCC(C(=O)OCCCP(=O)(O)O)CC6)CSc6ccccc6)c(S(=O)(=O)C(F)(F)F)c5)cc4)CC3)c2)c(-c2ccc(Cl)cc2)n1C(C)C
> 9.02: pIC50 [1] | pIC50 [2] | pIC50 [3] | pIC50 [4] | pIC50 [5]
active: viability, T/C [9] 5.69% | viability, T/C [11] 9.84% | viability, T/C [12] 9.11% | viability, T/C [13] 3.67% | viability, T/C (second compound 1 µM, first compound 0.003 µM) 9.49% | viability, T/C [14] 8.9% | viability, T/C [15] 7.48% | viability, T/C [16] 7.03% | viability, T/C [17] 2.37% | viability, T/C (second compound 3.16 µM, first compound 0.000949 µM) 7.63% | viability, T/C (second compound 3.16 µM, first compound 0.003 µM) 8.78% | viability, T/C [18] 7.9% | viability, T/C [19] 5.11% | viability, T/C [20] 4.79% | viability, T/C [21] 2.11% | viability, T/C (second compound 10 µM, first compound 0.000949 µM) 4.44% | viability, T/C (second compound 10 µM, first compound 0.003 µM) 6.25% | viability, T/C [22] 6.34% | viability, T/C [23] 5.72% | viability, T/C [24] 3.51% | viability, T/C [25] 1.84%
inactive: viability, T/C (second compound 0.1 µM, first compound 0.000949 µM) 13.5% | viability, T/C (second compound 0.1 µM, first compound 0.003 µM) 16.7% | viability, T/C [6] 18.6% | viability, T/C [7] 13.7% | viability, T/C [8] 9.41% | viability, T/C (second compound 0.316 µM, first compound 0.000949 µM) 15.2% | viability, T/C (second compound 0.316 µM, first compound 0.003 µM) 13.6% | viability, T/C [10] 10.8% | viability, T/C (second compound 1 µM, first compound 0.000949 µM) 10.2%

Cc1nc(N2CCC3(CC2)COC(C)C3N)c(CO)nc1Sc1ccnc(N)c1Cl (stereo unspecified) + Cc1c(S(C)(=O)=O)c(-c2cc(F)cc(N3CCN(c4ccc(NS(=O)(=O)c5ccc(NC(CCN6CCC(C(=O)OCCCP(=O)(O)O)CC6)CSc6ccccc6)c(S(=O)(=O)C(F)(F)F)c5)cc4)CC3)c2)c(-c2ccc(Cl)cc2)n1C(C)C
active: viability, T/C [8] 11.1% | viability, T/C [9] 7.3% | viability, T/C (second compound 0.1 µM, first compound 0.949 µM) 7.66% | viability, T/C (second compound 0.1 µM, first compound 3 µM) 5.44% | viability, T/C [10] 8.93% | viability, T/C [11] 9.76% | viability, T/C [12] 7.87% | viability, T/C [13] 5.11% | viability, T/C (second compound 0.316 µM, first compound 0.949 µM) 5.06% | viability, T/C (second compound 0.316 µM, first compound 3 µM) 4.22% | viability, T/C [14] 7.05% | viability, T/C [15] 7.01% | viability, T/C [16] 6.81% | viability, T/C [17] 4.44% | viability, T/C (second compound 1 µM, first compound 0.949 µM) 4.09% | viability, T/C (second compound 1 µM, first compound 3 µM) 2.1% | viability, T/C [18] 4.29% | viability, T/C [19] 6.13% | viability, T/C [20] 4.92% | viability, T/C [21] 3.71% | viability, T/C (second compound 3.16 µM, first compound 0.949 µM) 2.47% | viability, T/C (second compound 3.16 µM, first compound 3 µM) 2.4% | viability, T/C [22] 4.54% | viability, T/C [23] 4.83% | viability, T/C [24] 3.89% | viability, T/C [25] 3.77% | viability, T/C (second compound 10 µM, first compound 0.949 µM) 2.82% | viability, T/C (second compound 10 µM, first compound 3 µM) 1.96%
> 8.02: pIC50 [1] | pIC50 [2] | pIC50 [3] | pIC50 [4] | pIC50 [5]
inactive: viability, T/C [6] 11.9% | viability, T/C [7] 11.6%

Cc1nc(N2CCC3(CC2)COC(C)C3N)c(CO)nc1Sc1ccnc(N)c1Cl (stereo unspecified)
7.18 and 7.21 and 7.32: pIC50 (curve of compound)
inactive: viability, T/C (compound 0.00949 µM) 73.9% and 66.6% and 93.2% | viability, T/C (compound 0.03 µM) 59.7% and 84% and 54% | viability, T/C (compound 0.0949 µM) 42.7% and 34.4% and 43% | viability, T/C (compound 0.3 µM) 35.3% and 19.2% and 23.9% | viability, T/C (compound 0.949 µM) 25.5% and 25.6% and 19.7% | viability, T/C (compound 3 µM) 13.4% and 15.9% and 15.6%
